# Legend:
# [1] = molecular target: HSD17B13 (Homo sapiens (Human), UniProt Q7Z5P4); test: HSD17B13 enzymatic inhibition assay (150 nM or 50 nM HSD17B13); type: biochemical; conditions: 50 nM HSD17B13; read-out: Inhibition of 50 nM of HSD17B13 IC50
# [2] = molecular target: HSD17B2 (Homo sapiens (Human), UniProt P37059); test: HSD17B2 enzymatic blocking assay; type: biochemical; conditions: 1.8 μM Estradiol, 650 μM NAD; read-out: Inhibition of HSD17B2 IC50
# Protocol: To screen compounds of the disclosure for their ability to block HSD17B2 function, an enzymatic blocking assay was performed. For the assay, HSD17B2 activity was measured by detecting NADH formation from oxidation of Estradiol using a NADH Glo luminescence assay (Promega, #Cat. No. G9062). Compounds of the disclosure were evaluated in a dose titration assay where the compounds were titrated at 10-point dose curve using an Echo-555 liquid handling dispenser. HSD17B2 (SEQ ID NO: 3, expressed in mammalian cells) was added at a final concentration of 2 ng/μL in a buffer containing 50 mM Tris-HCl, pH 7.5, Pluronic F-127 0.05%, Tween20 0.01%, BSA 0.01% into a low volume white 384-well assay plate. Compounds were incubated with the enzyme for 15 min at 20° C. The assay reaction was then initiated by addition of 1.8 μM Estradiol substrate (Sigma, catalog #E2758-250MG, CAS: 50-28-2) and 650 μM NAD co-factor, and the reaction mixture was incubated for 45 min at 20° C. DMSO at a concentration of 0.5% was used as a negative control and a ‘no substrate’ control was used a positive control in the assay. Detection reagent was then added as per manufacturer's instructions, and the plate was subsequently incubated in the dark for 1 hour at room temperature, NADH generated was detected in the luminescence mode on the Envision Perkin Elmer plate reader. The IC50 values were determined using Dotmatics analysis software.
# [3] = Microsome stability assay, human liver microsomes; type: in vitro ADME; conditions: 1 μM compound, 0.5 mg/mL microsomal protein; for microsomal CLint at 1 h, 1 µM / half-life at 1 h, 1 µM / microsomal CLint at 1 μM / half-life at 1 μM: human, human liver microsomes, pooled, NADPH, 37° C.; for microsomal CLint at 1 h, 1 µM / microsomal CLint at 1 μM: read-out: Microsome Stability Human liver microsomes Cl; for half-life at 1 h, 1 µM / half-life at 1 μM: read-out: Microsome Stability Human liver microsomes T½
# Protocol: (§1) Compounds of the disclosure were screened in microsome stability assays. For the screen, test compounds were incubated at 37° C. with either human liver microsomes (Corning; #452117) or mouse liver microsomes (XenoTech; #M1000), pooled from multiple donors, at 1 μM in the presence of a NADPH regenerating system at 0.5 mg/mL microsomal protein. Positive controls included in the assay were testosterone (3A4 substrate), propafenone (2D6) and diclofenac (2C9). Samples were removed at different time points (0, 5, 10, 20, 30 and 60 minutes) and immediately mixed with cold acetonitrile containing internal standard (IS, 200 ng/mL tolbutamide and 200 ng/mL labetalol). Test compounds incubated with microsomes for 60 minutes without the NADPH regenerating system was also included. A single point for each test condition (n=1) was obtained, and samples were analyzed by LC/MS/MS. Disappearance of the test compound was assessed based on peak area ratios of analyte/IS (no standard curve).
# [4] = Microsome stability assay, mouse liver microsomes; type: in vitro ADME; conditions: 1 μM compound, 0.5 mg/mL microsomal protein; for microsomal CLint at 1 h, 1 µM / half-life at 1 h, 1 µM: mouse, mouse liver microsomes, pooled, NADPH, 37° C.; for microsomal CLint at 1 h, 1 µM: read-out: Microsome Stability Mouse liver microsomes Cl; for half-life at 1 h, 1 µM: read-out: Microsome Stability Mouse liver microsomes T½
# Protocol: as §1
# Sequence of HSD17B2 (P37059 other isoform, or with tags, fused parts or gaps): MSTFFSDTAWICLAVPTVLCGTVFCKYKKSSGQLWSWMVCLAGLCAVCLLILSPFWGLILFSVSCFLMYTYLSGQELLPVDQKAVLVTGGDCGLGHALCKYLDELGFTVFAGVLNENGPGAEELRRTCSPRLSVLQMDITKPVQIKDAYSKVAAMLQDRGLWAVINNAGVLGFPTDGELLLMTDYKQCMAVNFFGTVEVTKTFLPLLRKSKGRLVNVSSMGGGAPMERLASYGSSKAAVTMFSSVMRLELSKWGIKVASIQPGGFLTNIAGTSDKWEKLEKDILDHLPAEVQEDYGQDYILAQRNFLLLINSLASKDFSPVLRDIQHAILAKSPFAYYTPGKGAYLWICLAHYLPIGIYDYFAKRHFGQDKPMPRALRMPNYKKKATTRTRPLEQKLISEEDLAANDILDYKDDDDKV
# Sequence of HSD17B13 (Q7Z5P4 other isoform, or with tags, fused parts or gaps): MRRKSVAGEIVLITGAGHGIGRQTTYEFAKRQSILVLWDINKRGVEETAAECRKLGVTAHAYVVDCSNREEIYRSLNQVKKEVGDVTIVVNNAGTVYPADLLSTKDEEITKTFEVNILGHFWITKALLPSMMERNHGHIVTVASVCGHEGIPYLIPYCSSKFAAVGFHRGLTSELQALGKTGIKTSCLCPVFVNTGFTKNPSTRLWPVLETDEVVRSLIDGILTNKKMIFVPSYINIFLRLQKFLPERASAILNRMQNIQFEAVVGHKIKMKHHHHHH
Structure (SMILES),IC50 [1],IC50 [2],Microsome Stability Human liver microsomes % Remaining @60 min [3],"microsomal CLint at 1 h, 1 µM [3]","half-life at 1 h, 1 µM [3]",Microsome Stability Mouse liver microsomes % Remaining @60 min [4],"microsomal CLint at 1 h, 1 µM [4]","half-life at 1 h, 1 µM [4]",microsomal CLint at 1 μM [3],half-life at 1 μM [3]
"O=C(NC(c1ccccc1)c1ccc(CC(F)(F)F)cc1)c1ccc(C(F)(F)F)[nH]c1=O (centres unmarked) [Compound 12, 2-oxo-N-(phenyl(4-(2,2,2-trifluoroethyl)phenyl)methyl)-6-(trifluoromethyl)-1,2-dihydropyridine-3-carboxamide]",390 nM,15.6 µM,84.70%,,,56.90%,18.6 µL/min/mg,74.5 min,< 9.6 µL/min/mg,> 145 min
"O=C(NC(c1ccc(C(F)(F)F)cc1)c1ccc(C(F)(F)F)cc1)c1ccc(C(F)(F)F)[nH]c1=O [Compound 14, N-(bis(4-(trifluoromethyl)phenyl)methyl)-2-oxo-6-(trifluoromethyl)-1,2-dihydropyridine-3-carboxamide]",2810 nM,14.2 µM,100.00%,,,,,,< 9.6 µL/min/mg,> 145 min
"O=C(NC(c1ccccc1)c1ccc(O)cc1)c1ccc(C(F)(F)F)[nH]c1=O (centres unmarked) [Compound 19, N-((4-hydroxyphenyl)(phenyl)methyl)-2-oxo-6-(trifluoromethyl)-1,2-dihydropyridine-3-carboxamide]",1910 nM,33.6 µM,49.80%,20.2 µL/min/mg,68.6 min,,,,,
"O=C(NC(c1ccc(OC(F)F)cc1)c1ccc(OC(F)F)cc1)c1ccc(C(F)(F)F)[nH]c1=O [Compound 22, N-(bis(4-(difluoromethoxy)phenyl)methyl)-2-oxo-6-(trifluoromethyl)-1,2-dihydropyridine-3-carboxamide]",890 nM,12.8 µM,,,,,,,,
"COc1ccc(C(NC(=O)c2ccc(C(F)(F)F)[nH]c2=O)c2ccc(OC)cc2)cc1 [Compound 24, N-(bis(4-methoxyphenyl)methyl)-2-oxo-6-(trifluoromethyl)-1,2-dihydropyridine-3-carboxamide]",600 nM,20.6 µM,2.00%,131 µL/min/mg,10.6 min,,,,,
"COc1ccc(C(NC(=O)c2ccc(C(F)(F)F)[nH]c2=O)c2ccccc2)cc1 (centres unmarked) [Compound 26, N-((4-methoxyphenyl)(phenyl)methyl)-2-oxo-6-(trifluoromethyl)-1,2-dihydropyridine-3-carboxamide]",1200 nM,22.7 µM,16.00%,62.4 µL/min/mg,22.2 min,,,,,
"O=C(NC(c1ccccc1)c1ccc(C(F)(F)F)cc1)c1ccc(C(F)(F)F)[nH]c1=O (centres unmarked) [Compound 28, N-(phenyl(4-(trifluoromethyl)phenyl)methyl)-2-oxo-6-(trifluoromethyl)-1,2-dihydropyridine-3-carboxamide]",1300 nM,12.6 µM,94.00%,,,,,,< 9.6 µL/min/mg,> 145 min
"Cc1ccc2c(c1)-c1cc(C)ccc1C2NC(=O)c1ccc(C(F)(F)F)[nH]c1=O [Compound 43, N-(3,6-dimethyl-9H-fluoren-9-yl)-2-oxo-6-(trifluoromethyl)-1,2-dihydropyridine-3-carboxamide]",490 nM,6.59 µM,31.30%,39.8 µL/min/mg,34.8 min,,,,,
"O=C(NC1c2ccc(F)cc2-c2cc(F)ccc21)c1ccc(C(F)(F)F)[nH]c1=O [Compound 44, N-(3,6-difluoro-9H-fluoren-9-yl)-2-oxo-6-(trifluoromethyl)-1,2-dihydropyridine-3-carboxamide]",530 nM,12.8 µM,,,,,,,,
"COc1ccc2c(c1)-c1cc(OC)ccc1C2NC(=O)c1ccc(C(F)(F)F)[nH]c1=O [Compound 46, N-(3,6-dimethoxy-9H-fluoren-9-yl)-2-oxo-6-(trifluoromethyl)-1,2-dihydropyridine-3-carboxamide]",1070 nM,38.1 µM,,,,,,,,
"O=C(NC1CCc2ccccc21)c1ccc(C(F)(F)F)[nH]c1=O (centres unmarked) [Compound 63, N-(2,3-dihydro-1H-inden-1-yl)-2-oxo-6-(trifluoromethyl)-1,2-dihydropyridine-3-carboxamide]",3680 nM,> 100 µM,,,,,,,,
"Cc1ccc(C(CC2CC2)NC(=O)c2ccc(C(F)(F)F)[nH]c2=O)cc1 (centres unmarked) [Compound 401, N-(2-cyclopropyl-1-(p-tolyl)ethyl)-2-oxo-6-(trifluoromethyl)-1,2-dihydropyridine-3-carboxamide]",350 nM,,1.80%,463 µL/min/mg,2.99 min,4%,182 µL/min/mg,7.61 min,,
"CCC1CCc2cc(C)ccc2C1NC(=O)c1ccc(C(F)(F)F)[nH]c1=O (centres unmarked) [Compound 543, N-(2-ethyl-6-methyl-1,2,3,4-tetrahydronaphthalen-1-yl)-2-oxo-6-(trifluoromethyl)-1,2-dihydropyridine-3-carboxamide]",50 nM,,0.36%,364 µL/min/mg,3.81 min,25.30%,43.6 µL/min/mg,31.8 min,,
"Cc1ccc(C(CC2CCC2)NC(=O)c2ccc(C(F)(F)F)[nH]c2=O)cc1 (centres unmarked) [Compound 557, N-(2-cyclobutyl-1-(p-tolyl)ethyl)-2-oxo-6-(trifluoromethyl)-1,2-dihydropyridine-3-carboxamide]",140 nM,,1%,437 µL/min/mg,3.17 min,65%,14.4 µL/min/mg,96.3 min,,

# Next, values leading:
IC50 [1],IC50 [2],Microsome Stability Human liver microsomes % Remaining @60 min [3],"microsomal CLint at 1 h, 1 µM [3]","half-life at 1 h, 1 µM [3]",Microsome Stability Mouse liver microsomes % Remaining @60 min [4],"microsomal CLint at 1 h, 1 µM [4]","half-life at 1 h, 1 µM [4]",microsomal CLint at 1 μM [3],half-life at 1 μM [3],Structure (SMILES)
530 nM,14.5 µM,1.00%,176 µL/min/mg,7.87 min,,,,,,"O=C(NC1c2ccccc2Oc2ccccc21)c1ccc(C(F)(F)F)[nH]c1=O [Compound 1A, 2-oxo-6-(trifluoromethyl)-N-(9H-xanthen-9-yl)-1,2-dihydropyridine-3-carboxamide]"
1300 nM,13.2 µM,,,,,,,,,"C=Cc1ccc(C(NC(=O)c2ccc(C(F)(F)F)[nH]c2=O)c2ccccc2)cc1 (centres unmarked) [Compound 3A, 2-oxo-N-(phenyl(4-vinylphenyl)methyl)-6-(trifluoromethyl)-1,2-dihydropyridine-3-carboxamide]"
550 nM,11.7 µM,1.12%,156 µL/min/mg,8.86 min,,,,,,"CCc1ccc(C(NC(=O)c2ccc(C(F)(F)F)[nH]c2=O)c2ccccc2)cc1 (centres unmarked) [Compound 4A, N-((4-ethylphenyl)(phenyl)methyl)-2-oxo-6-(trifluoromethyl)-1,2-dihydropyridine-3-carboxamide]"
990 nM,13.2 µM,8.05%,88.6 µL/min/mg,15.6 min,,,,,,"O=C(NC(Cc1ccccc1)c1ccc(Cl)cc1)c1ccc(C(F)(F)F)[nH]c1=O (centres unmarked) [Compound 19A, N-(1-(4-chlorophenyl)-2-phenylethyl)-2-oxo-6-(trifluoromethyl)-1,2-dihydropyridine-3-carboxamide]"
1560 nM,2.27 µM,,,,,,,,,"COc1ccc(C(C)(NC(=O)c2ccc(C(F)(F)F)[nH]c2=O)c2ccc(OC)cc2)cc1 [Compound 20A, N-(1,1-bis(4-methoxyphenyl)ethyl)-2-oxo-6-(trifluoromethyl)-1,2-dihydropyridine-3-carboxamide]"

# From patent publication US11957687B2 (REGENERON PHARMACEUTICALS, INC., priority 2019, dated 2024)
